The results in this text go back to PubChem BioAssay (NCI).

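Protocol summary: plate cells (96-well), add compound at 5 concentrations, incubate 48 h, interpolate endpoints linearly. At the GI50, growth is halved. The concentration for full growth arrest is given as TGI.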

Among the test systems are KM12 colon; NCI-H226 lung; RXF 393 renal; HCT-116 colon; UACC-62 melanoma; HOP-92 NSCLC; HOP-62 NSCLC; OVCAR-4 ovarian; SF-539 CNS; SN12C renal.
Common to all, as to assay: inhibition of tumour cell growth, NCI panel, 48 h

Turning to `O=C(O)C(Cc1ccccc1)N1C(=O)/C(=C/C(Cl)=C/c2ccc([N+](=O)[O-])cc2)SC1=S` (centres undefined), the GI50 in the assay on KM12 colon is 2.06 µM; with NCI-H226 lung, 1.58 µM; in the assay with RXF 393 renal, 1.54 µM; in the assay on HCT-116 colon, 2.01 µM; in the assay with UACC-62 melanoma, 2 µM; with HOP-92 NSCLC, 2.35 µM. Moreover, the results for the GI50 with HOP-62 NSCLC and with OVCAR-4 ovarian were 2.31 µM and 3.21 µM, respectively. Further, the TGI in the assay on KM12 colon came to 4.35 µM; in the assay on NCI-H226 lung, 3.27 µM; with RXF 393 renal, 3.02 µM; with HCT-116 colon, 5.47 µM; with UACC-62 melanoma, 4.85 µM; in the assay with HOP-92 NSCLC, 5.71 µM. Besides, the TGI is 6.75 µM in the assay with HOP-62 NSCLC and greater than 100 µM in the assay on OVCAR-4 ovarian.
Consider `COc1ccc(CN2c3ccccc3Sc3ccccc32)cc1O`, for which the GI50 was 0.27 µM in the assay on SF-539 CNS; 12.2 µM with NCI-H226 lung; 0.338 µM with RXF 393 renal; 1.29 µM in the assay with SN12C renal; 0.386 µM with HCT-116 colon; 0.682 µM with UACC-62 melanoma. The GI50 was 0.502 µM in the assay on HOP-92 NSCLC, 0.384 µM in the assay with HOP-62 NSCLC and 0.726 µM in the assay with OVCAR-4 ovarian. The TGI in the assay with SF-539 CNS is 0.823 µM; with NCI-H226 lung it was 35 µM; with RXF 393 renal it was 15.6 µM; in the assay on SN12C renal, 22.3 µM; with HCT-116 colon, 13.1 µM; in the assay on UACC-62 melanoma, 19.4 µM. For the same compound, the TGI in the assay on HOP-92 NSCLC turned out to be 17.5 µM; in the assay with HOP-62 NSCLC, 17.4 µM; with OVCAR-4 ovarian it was 19.3 µM.
On to `O=C1c2ccccc2-c2c1c1ccccc1c(=O)n2CCNCCNCCNCCNCCn1c2c(c3ccccc3c1=O)C(=O)c1ccccc1-2`, for which the GI50 in the assay with KM12 colon is 0.655 µM; in the assay with SF-539 CNS, 0.0446 µM; in the assay on NCI-H226 lung, 0.368 µM; with HCT-116 colon, 0.133 µM; in the assay with UACC-62 melanoma, 0.447 µM; in the assay on HOP-92 NSCLC, 0.939 µM. Moreover, the GI50 with HOP-62 NSCLC is 0.973 µM. The TGI was 5.32 µM with KM12 colon; 0.314 µM in the assay with SF-539 CNS; 1.95 µM in the assay with NCI-H226 lung; 1.71 µM in the assay on UACC-62 melanoma; 2.5 µM in the assay on HOP-92 NSCLC; 2.24 µM with HOP-62 NSCLC.
Regarding `COC(=O)c1c(C(=O)O)c(-c2ccccc2)c(-c2ccccc2)c(-c2ccccc2)c1-c1ccccc1`, the GI50 in the assay with KM12 colon was greater than 100 µM; in the assay with SF-539 CNS, greater than 100 µM; in the assay on NCI-H226 lung, greater than 100 µM; with RXF 393 renal, greater than 100 µM; in the assay with SN12C renal, greater than 100 µM; in the assay on HCT-116 colon, 77.9 µM. Also, the GI50 in the assay with UACC-62 melanoma, with HOP-92 NSCLC and in the assay on HOP-62 NSCLC was greater than 100 µM throughout. Besides, the TGI in the assay on KM12 colon, in the assay on SF-539 CNS, with NCI-H226 lung, with RXF 393 renal, in the assay with SN12C renal and with HCT-116 colon was greater than 100 µM throughout. Also, the TGI in the assay on UACC-62 melanoma, in the assay on HOP-92 NSCLC and with HOP-62 NSCLC was greater than 100 µM each time.
In the case of `Cn1cnnc1Sc1c([N+](=O)[O-])nc(-c2ccc([N+](=O)[O-])cc2)n1C`, the TGI came to 41.2 µM in the assay with KM12 colon; 33.2 µM with SF-539 CNS; 89.9 µM with NCI-H226 lung; 29.6 µM in the assay on SN12C renal; 28.4 µM with HCT-116 colon; 30.4 µM with UACC-62 melanoma. For the same compound, the values for the TGI with HOP-92 NSCLC, in the assay on HOP-62 NSCLC and in the assay on OVCAR-4 ovarian were 34.9 µM, greater than 100 µM and 29.5 µM, respectively.
For the compound `C[C@]12CCC3c4ccc(O)cc4CCC3C1CC[C@@H]2NC(=O)/C=C/c1ccc(O)c(O)c1` (some centres undefined), the GI50 with KM12 colon is 34.2 µM; in the assay with NCI-H226 lung, 12.3 µM; with SN12C renal, 13.4 µM; in the assay with HCT-116 colon, 10.6 µM; in the assay with UACC-62 melanoma, 11.5 µM; in the assay with HOP-92 NSCLC, 5.59 µM. Further, the GI50 in the assay on HOP-62 NSCLC is 16.1 µM; in the assay on OVCAR-4 ovarian, 5.94 µM. Further, the TGI in the assay with KM12 colon was greater than 100 µM; with NCI-H226 lung, 37.9 µM; with SN12C renal it was 34.2 µM; with HCT-116 colon, 23 µM; in the assay with UACC-62 melanoma, 24.4 µM; with HOP-92 NSCLC, 25.1 µM. Also, the TGI in the assay with HOP-62 NSCLC was determined as 35.9 µM; in the assay on OVCAR-4 ovarian it was 24.7 µM.
For `CC(C)(O)c1cc(Nc2cc(Oc3cn(C4CC4)nc3C3CCOCC3)ccn2)ccn1`, the GI50 in the assay on KM12 colon was greater than 100 µM; with SF-539 CNS it was greater than 100 µM; in the assay with NCI-H226 lung, greater than 100 µM; with RXF 393 renal, 68.4 µM; in the assay with SN12C renal, greater than 100 µM; with HCT-116 colon it was 36.2 µM. Moreover, the GI50 in the assay with HOP-92 NSCLC was 21.3 µM; with HOP-62 NSCLC it was greater than 100 µM; in the assay on OVCAR-4 ovarian, greater than 100 µM. Further, the TGI in the assay with KM12 colon, in the assay on SF-539 CNS, in the assay with NCI-H226 lung, with RXF 393 renal, in the assay with SN12C renal and with HCT-116 colon was greater than 100 µM each time. Also, the TGI in the assay with HOP-92 NSCLC, in the assay with HOP-62 NSCLC and with OVCAR-4 ovarian was greater than 100 µM in each case.
On to `O=C(O)C1CC2C=CCC(C2)C1` (centres undefined), for which the TGI with KM12 colon, in the assay with NCI-H226 lung, with RXF 393 renal, in the assay on HCT-116 colon, in the assay on UACC-62 melanoma and in the assay on HOP-92 NSCLC was greater than 100 µM each time. For the same compound, the TGI in the assay with HOP-62 NSCLC and with OVCAR-4 ovarian was greater than 100 µM throughout.
Consider `CN(C)C(=S)/N=c1\ssc(=Nc2ccccc2)n1-c1ccccc1`, for which the TGI with SF-539 CNS is 32 µM; in the assay with NCI-H226 lung, 26.7 µM; with RXF 393 renal, 44.3 µM; with SN12C renal, greater than 100 µM; with HOP-92 NSCLC it was 46 µM; in the assay with HOP-62 NSCLC it was 75.5 µM. The TGI in the assay with OVCAR-4 ovarian turned out to be 18.9 µM.
With `CCCCC[C@H]1C/C=C2/C(=O)C=C[C@@H]2C/C=C\CCCC(=O)O1`, the GI50 in the assay with SF-539 CNS is 0.16 µM; in the assay with NCI-H226 lung it was 0.0904 µM; in the assay on RXF 393 renal, 0.0944 µM; in the assay on SN12C renal, 0.18 µM; in the assay on HCT-116 colon it was 0.0905 µM; with HOP-92 NSCLC, 0.577 µM. Besides, the GI50 in the assay on HOP-62 NSCLC was 0.129 µM; in the assay with OVCAR-4 ovarian, 0.189 µM. Further, the TGI in the assay on SF-539 CNS was found to be 0.67 µM; with NCI-H226 lung, 0.18 µM; with RXF 393 renal it was 0.223 µM; in the assay on SN12C renal, 2.44 µM; in the assay on HCT-116 colon it was 0.232 µM; in the assay with HOP-92 NSCLC it was 2.18 µM. Also, the TGI in the assay on HOP-62 NSCLC stood at 0.341 µM; in the assay on OVCAR-4 ovarian, 5.94 µM.
